According to patent US5238926A, “Anti-fungal agents” (priority 1992, dated 1993):
In brackets after ≈: the same amount, converted by molar mass.

What was measured:
[1] = In vitro anti-fungal activity, microtiter minimum inhibitory concentration (MIC) test, sensitive strains (MIC-S); format: cell-based; details: 48 h, pH 5.4, read-out: MIC-S
Experimental: (§1) The minimum inhibitory concentrations (MIC-R and MIC-S) were determined in accordance with the procedure set forth just below.
(§2) In vitro anti-fungal activity was determined in microtiter minimum inhibitory concentration (MIC) tests using Yeast Nitrogen […] (YNB without amino acids, Difco., Detroit, Mich.) at pH 5.4. Yeasts were grown overnight in Sabouraud Dextrose Broth. at 28° C. with shaking, and concentrations adjusted in sterile saline using a spectrophoptometer at 540 mμ. Compounds were dissolved in various vehicles and diluted in media to twice the final concentrations. The Cetus Pro/Pette system was used to serially dilute 50 μl in round bottom 96 well plates (Falcon, Lincoln Park, NJ.). The turbidometrically adjusted yeast suspensions were diluted 1:3,000 in YNB. These dilutions when added to the wells, produced a final inoculum of 3×10^3 /ml. Plates were incubated at 37° C. for 48 hours. MICs were defined as the lowest concentrations of compound that prevented visible growth. MICs were taken against the following organisms and expressed in the table above as the geometric mean. MIC-R and MIC-S mean respectively, MICs taken against resistant and sensitive strains.
Candida parapsilosis C67
Candida tropicalis C112
Torulopsis glabrata C95
Candida pseudotropicalis C967
Candida gullermondii C137
Sacchararomyces mutant C147

[2] = system: Resistant Strains (Candida albicans C79, C6, C8, C31, C54, C70, C104, C138, C140; Candida stellatoidea C45); test: In vitro anti-fungal activity, microtiter minimum inhibitory concentration (MIC) test, resistant strains (MIC-R); format: cell-based; details: 48 h, pH 5.4, read-out: MIC-R
Experimental: as §1, §2
Candida stellatoidea C45

SMILES	MIC [1] [µg/mL]	MIC [2] [µg/mL]
CCCCCCCCCCC(N)C(=O)N[C@H](C(N)=O)[C@H]1O[C@@H](n2ccc(=O)[nH]c2=O)[C@H](O)[C@@H]1O (stereo partly shown)	> 256	> 256
C=C[C@@H](C)[C@H](N)C(=O)N[C@H](C(=O)NCCCCCCCCCCCC)[C@H]1O[C@@H](n2ccc(=O)[nH]c2=O)[C@H](O)[C@@H]1O [6'-dodecylamido-5-N-[2-S-amino-3-R-methyl-4-pentenoyl]-UPOC]	26 (≈ 46 µM)	18 (≈ 31.8 µM)
CCCCCCCCCCCCNC(=O)[C@@H](NC(=O)[C@@H](N)CCOC)[C@H]1O[C@@H](n2ccc(=O)[nH]c2=O)[C@H](O)[C@@H]1O	111 (≈ 195 µM)	52 (≈ 91.3 µM)
CCCCCCCCCCCCNC(=O)[C@@H](NC(=O)[C@@H](N)C(C)CSC)[C@H]1O[C@@H](n2ccc(=O)[nH]c2=O)[C@H](O)[C@@H]1O (stereo partly shown)	34 (≈ 56.7 µM)	23 (≈ 38.3 µM)
CCCCCCCCCCCCNC(=O)[C@@H](NC(=O)[C@@H](N)CCCC)[C@H]1O[C@@H](n2ccc(=O)[nH]c2=O)[C@H](O)[C@@H]1O	19.7 (≈ 34.7 µM)	13 (≈ 22.9 µM)
CCCCCCCCCCCCNC(=O)[C@@H](NC(=O)C1(N)CC2CCC1C2)[C@H]1O[C@@H](n2ccc(=O)[nH]c2=O)[C@H](O)[C@@H]1O (stereo partly shown)	315 (≈ 532 µM)	104 (≈ 176 µM)
CCCCCCCCCCCCNC(=O)[C@@H](NC(=O)[C@@H](N)CSCc1ccccc1)[C@H]1O[C@@H](n2ccc(=O)[nH]c2=O)[C@H](O)[C@@H]1O	> 147	111 (≈ 171 µM)
CCCCCCCCCCCCNC(=O)[C@@H](NC(=O)[C@@H](N)CC[S+](C)[O-])[C@H]1O[C@@H](n2ccc(=O)[nH]c2=O)[C@H](O)[C@@H]1O (stereo partly shown)	181 (≈ 301 µM)	181 (≈ 301 µM)
